From the NIST ThermoML archive (doi:10.1021/je800930v)
± gives the expanded uncertainty stated by the source.

Experiments:
[1] = 101 kPa, Liquid
[2] = xn = mol fraction of the nth substance listed; conditions: 101 kPa, Liquid

CCCCO [butan-1-ol]
[1]
Conditions | mass density [kg/m3] | viscosity [mPa·s]
298.15 K | 805.8 ± 0.46 | 2.588 ± 0.03
308.15 K | 798.08 ± 0.47 | 1.991 ± 0.023
318.15 K | 790.22 ± 0.48 | 1.555 ± 0.019
328.15 K | 782.17 ± 0.5 | 1.228 ± 0.015
338.15 K | 773.88 ± 0.51 | 0.981 ± 0.013

O=C(O)C1CC1 [cyclopropanecarboxylic acid]
[1]
Conditions | mass density [kg/m3] | viscosity [mPa·s]
298.15 K | 1082.92 ± 0.31 | 3.306 ± 0.038
308.15 K | 1072.97 ± 0.3 | 2.603 ± 0.03
318.15 K | 1063.04 ± 0.28 | 2.102 ± 0.025
328.15 K | 1053.12 ± 0.26 | 1.739 ± 0.021
338.15 K | 1043.2 ± 0.25 | 1.459 ± 0.018

O=C(O)C1CC1 [cyclopropanecarboxylic acid] + CO
[2]
Conditions | mass density, 298.15 K [kg/m3] | mass density, 308.15 K [kg/m3] | mass density, 318.15 K [kg/m3] | mass density, 328.15 K [kg/m3] | viscosity, 298.15 K [mPa·s] | viscosity, 308.15 K [mPa·s] | viscosity, 318.15 K [mPa·s] | viscosity, 328.15 K [mPa·s]
x1 = 0.1 | 846.5 ± 0.41 | 837.02 ± 0.43 | 827.45 ± 0.44 | 817.74 ± 0.46 | 0.773 ± 0.011 | 0.651 ± 0.01 | 0.572 ± 0.009 | 0.499 ± 0.009
x1 = 0.2 | 895.02 ± 0.34 | 885.53 ± 0.35 | 875.84 ± 0.37 | 866.23 ± 0.38 | 1.052 ± 0.013 | 0.886 ± 0.012 | 0.753 ± 0.011 | 0.645 ± 0.01
x1 = 0.3 | 935.16 ± 0.28 | 925.62 ± 0.29 | 916 ± 0.31 | 906.25 ± 0.32 | 1.392 ± 0.017 | 1.151 ± 0.014 | 0.965 ± 0.013 | 0.816 ± 0.011
x1 = 0.3999 | 968.42 ± 0.23 | 958.83 ± 0.24 | 949.18 ± 0.26 | 939.42 ± 0.27 | 1.778 ± 0.021 | 1.451 ± 0.018 | 1.199 ± 0.015 | 1 ± 0.013
x1 = 0.4994 | 996.21 ± 0.2 | 986.56 ± 0.21 | 976.86 ± 0.22 | 967.07 ± 0.23 | 2.189 ± 0.026 | 1.765 ± 0.021 | 1.44 ± 0.017 | 1.191 ± 0.015
x1 = 0.5989 | 1019.49 ± 0.22 | 1009.79 ± 0.21 | 1000.06 ± 0.19 | 990.24 ± 0.2 | 2.557 ± 0.03 | 2.029 ± 0.024 | 1.641 ± 0.02 | 1.349 ± 0.016
x1 = 0.7001 | 1039.41 ± 0.24 | 1029.65 ± 0.23 | 1019.87 ± 0.22 | 1010.04 ± 0.2 | 2.887 ± 0.033 | 2.227 ± 0.026 | 1.825 ± 0.022 | 1.494 ± 0.018
x1 = 0.8001 | 1056.17 ± 0.27 | 1046.35 ± 0.25 | 1036.53 ± 0.24 | 1026.65 ± 0.23 | 3.139 ± 0.036 | 2.449 ± 0.028 | 1.963 ± 0.023 | 1.604 ± 0.019
x1 = 0.9 | 1070.57 ± 0.29 | 1060.68 ± 0.28 | 1050.81 ± 0.26 | 1040.92 ± 0.24 | 3.298 ± 0.038 | 2.553 ± 0.03 | 2.047 ± 0.024 | 1.678 ± 0.02
x1 = 1 | 1082.92 ± 0.31 | 1072.97 ± 0.3 | 1063.04 ± 0.28 | 1053.12 ± 0.26 | 3.306 ± 0.038 | 2.603 ± 0.03 | 2.102 ± 0.025 | 1.739 ± 0.021

CCO [ethanol]
[1]
Conditions | mass density [kg/m3] | viscosity [mPa·s]
298.15 K | 785.44 ± 0.49 | 1.097 ± 0.014
308.15 K | 776.78 ± 0.5 | 0.908 ± 0.012
318.15 K | 767.94 ± 0.52 | 0.756 ± 0.011
328.15 K | 758.92 ± 0.53 | 0.634 ± 0.01

CCO [ethanol] + O=C(O)C1CC1
[2], x2 = 0
Conditions | mass density [kg/m3] | viscosity [mPa·s]
298.15 K | 785.44 ± 0.49 | 1.097 ± 0.014
308.15 K | 776.78 ± 0.5 | 0.908 ± 0.012
318.15 K | 767.94 ± 0.52 | 0.756 ± 0.011
328.15 K | 758.92 ± 0.53 | 0.634 ± 0.01

CO [methanol]
[1]
Conditions | mass density [kg/m3] | viscosity [mPa·s]
298.15 K | 787.01 ± 0.49 | 0.556 ± 0.009
308.15 K | 777.54 ± 0.5 | 0.484 ± 0.009
318.15 K | 767.98 ± 0.52 | 0.424 ± 0.008
328.15 K | 758.28 ± 0.53 | 0.372 ± 0.008

CO [methanol] + O=C(O)C1CC1
[2], x2 = 0
Conditions | mass density [kg/m3] | viscosity [mPa·s]
298.15 K | 787.01 ± 0.49 | 0.556 ± 0.009
308.15 K | 777.54 ± 0.5 | 0.484 ± 0.009
318.15 K | 767.98 ± 0.52 | 0.424 ± 0.008
328.15 K | 758.28 ± 0.53 | 0.372 ± 0.008

CCCO [propan-1-ol]
[1]
Conditions | mass density [kg/m3] | viscosity [mPa·s]
298.15 K | 799.6 ± 0.47 | 1.955 ± 0.023
308.15 K | 791.49 ± 0.48 | 1.538 ± 0.019
318.15 K | 783.22 ± 0.49 | 1.224 ± 0.015
328.15 K | 774.73 ± 0.51 | 0.986 ± 0.013
338.15 K | 765.98 ± 0.52 | 0.801 ± 0.011

CCCO [propan-1-ol] + O=C(O)C1CC1
[2], x2 = 0
Conditions | mass density [kg/m3] | viscosity [mPa·s]
298.15 K | 799.6 ± 0.47 | 1.955 ± 0.023
308.15 K | 791.49 ± 0.48 | 1.538 ± 0.019
318.15 K | 783.22 ± 0.49 | 1.224 ± 0.015
328.15 K | 774.73 ± 0.51 | 0.986 ± 0.013
338.15 K | 765.98 ± 0.52 | 0.801 ± 0.011
